# Results taken from patent US20090087909A1, “Use of Trehalose in Conifer Somatic Embryogenesis to Increase Germination Vigor” (Weyerhaeuser Company, priority 2007, published 2009).
# Test system: Somatic embryos of Loblolly pine, genotypes C and D
# Assay: Germination rate, yield, germinants/ml, root and hypocotyl length, genotypes C and D (Example 4)
# Type: cell-based, Loblolly pine (Pinus taeda)
# Procedure: Methods: Somatic embryos of Loblolly pine, genotypes C and D, were cultured as described in EXAMPLE 1 up to incubation in the maintenance media. After incubation in maintenance media using the methods described in EXAMPLE 1, advanced early stage somatic embryos were plated on semi-solid development medium BM3 (with 25 ppm ABA, 1% glucose and 2.5% maltose) at 25 embryos per plate, 15 plates per genotype. Specifically, at five weeks after plating, the media for 10 treatment plates per genotype were replaced with modified development media BM3 containing 5 ppm ABA instead of 25 ppm ABA. […]
# After development, the embryos were transferred to stratification medium BM4, and germinated on medium BM5, as described in EXAMPLE 1. After 6 weeks incubation on germination medium, the embryos were assessed for germination rate, root length, hypocotyls length, and epicotyl length. […]
# Plate yield was determined during singulation at eight weeks by counting the number of embryos present. […]
# Data for germination rate was analyzed with a generalized linear model with a logit link. Yield, germinants/ml, root length, and hypocotyl length data were analyzed with a mixed linear model. […] When variance among all ten treatments was detected, the response means for the trehalose treatments only were compared using Fisher's LSD for multiple comparisons.
smiles,measurement,setting,value
"OC[C@H]1O[C@H](O[C@H]2O[C@H](CO)[C@@H](O)[C@H](O)[C@H]2O)[C@H](O)[C@@H](O)[C@@H]1O [trehalose, α-D-glucopyranosyl-[1,1]-α-D-glucopyranoside]",Hypocotyl Length LS mean,combined genotypes C and D,positive effect on the hypocotyl length
same,Root Length genotype C mean,genotype C,induces greater root length development
